{"source": "patent US8455440B2", "about": "“Combination anticoagulant therapy with a compound that acts as a factor Xa inhibitor” (Millennium Pharmaceuticals, Inc., priority 2007, dated 2013)", "key": {"[1]": {"system": "ADP induced platelet aggregation", "test": "Ex vivo platelet aggregation induced by 10 μM ADP", "format": "in vivo", "settings": "Rattus norvegicus, read-out: % inhibition of platelet aggregation", "method": "In this experiment, the ability of Compound A to maintain vessel patency under arterial flow conditions in ferric chloride induced thrombosis in rat carotid artery is compared to that achieved by clopidogrel. Compound A was administered by intravenous infusions and clopidogrel was dosed orally for three days. Ex vivo platelet aggregation induced by 10 μM ADP and clotting times (prothrombin time, PT and activated partial thromboplastin times, aPTT) were measured over the experimental time course (90 min) in all animals.\nThis level of platelet inhibition is approximately equivalent to that attained by clopidogrel's effect on human platelets at the therapeutic dose in clinical use (75 mg per day). […] Time to occlusion was measured in animals that had vessel occlusion."}, "cytokine release": {"system": "cytokine release", "test": "Ex vivo assay of human cytokine release in collagen activated whole blood", "format": "cell-based", "settings": "Compound A single treatment (50 to 500 nM), blood of healthy untreated donors, collagen 4 μg/mL", "method": "An ex vivo assay system of human cytokine release was used to test whether inhibition of factor Xa should augment the effect of reduction of inflammation elicited by standard anti-inflammatory drugs, such as aspirin.\nFollowing addition of Compound A (50 to 500 nM) to the blood samples, control and treated samples were activated by addition of collagen (Chronolog, 4 μg/mL) and gently rotated at 37° C. for 45 min. At the end of the activation period, blood samples were centrifuged at 13,000 rpm (15,000 g) for 5 min in an Eppendorf 5415G centrifuge. Plasma was removed, treated with protease inhibitor cocktail (Roche) and stored frozen at −80° C. Cytokines released from the blood cells were quantitated in a Multiplexed Biomarker Immunoassay for Luminex Instrumentation (Millipore USA). […] For example, in the plasma samples from six donors, the mean amount of interleukin 4 was 28.4 pg/mL in the untreated control and 26.8 to 29.4 pg/mL in the Compound A treated samples. […] Thus in this ex vivo system Compound A was capable of providing additional beneficial effect over a widely used anti-inflammatory agent."}, "thrombin generation [2]": {"system": "thrombin generation", "test": "Thrombin generation inhibition assay", "format": "biochemical, human", "method": "After 10 min, the reaction was stopped by addition of EGTA. A chromogenic peptide substrate (Spectrozyme TH, American Diagnostica) specific for thrombin was added to measure the activity of thrombin generated during the tissue factor treatment period. After allowing the substrate cleavage reaction to proceed for 2 min, the samples were quenched with glacial acetic acid. The plasma samples were analyzed in triplicate in a 96-well plate format. […] The control samples were used to establish plate acceptance criteria. Absorbance of each sample well was measured at 405 nm.\nThrombin generation (% Inhibition) was calculated from absorbance at 405 nm (A405) by the following equation: %Inhibition=(1−A405/Baseline)×100.\nSince thrombin generation inhibition values were reported as a percentage there is no lower limit of quantitation in this assay."}, "Rhesus Monkeys": {"system": "Rhesus Monkeys", "test": "Template bleed times in rhesus monkeys", "format": "in vivo, rhesus monkey", "settings": "for Template Bleed Times / Template Bleed Times, Mean of all times / Template Bleed Times, Mean per animal / Template Bleed Times, Mean for time points 1-24 hr (post-Compound A dosing): in min (unit assumed); for Template Bleed Times, Mean of animals: mean of two animals; for Template Bleed Times, Mean of all times: all times (0-24 hr)", "description": "Injectable heparins are often dose limited by their bleeding consequences which result in a narrow therapeutic window for treatment effects."}, "thrombin generation [3]": {"system": "thrombin generation", "test": "Thrombin generation assay in platelet rich plasma (PRP)", "format": "biochemical, human", "method": "PRP and PPP were prepared by spinning the anticoagulated blood at ˜100×g or 1000×g for 20 minutes, respectively, at room temperature. Platelet counts in PRP were adjusted with homologous PPP to about 200,000 platelets/μL. For thrombin generation in 100 μL reaction mixture, 75 μL PRP was first mixed with CaCl2, convulxin, and Z-Gly-Gly-Arg-aminomethylcoumarin (Z-GGR-AMC, a thrombin fluorogenic substrate) for 3 minutes at 37° C., followed by adding tissue factor (Innovin, Dade Behring) to initiate the generation of thrombin. A typical reaction mixture contained 15 mM Ca^2+, 0.1 μg/mL convulxin, 100 μM Z-GGR-AMC, and 0.1 nM TF (tissue factor) (Innovin). Thrombin formation was monitored continuously at 37° C. by a fluorometric plate reader (Molecular Devices) measuring the relative fluorescence units (RFU). Inhibitors were pre-incubated with plasma for 20 minutes at room temperature before adding CaCl2 and convulxin.\nNon-ASA represents result from donors free of aspirin. ASA represents results from donors taken aspirin for at least three days. % Inhibition was calculated by normalization of mean RFU (n=5) to Non-ASA at 0 nM Compound A."}}, "note": "Where “and” joins values, the source holds several entries; their conditions need not be identical. Equal entries are not always repeated. Marks after values point to notes of the source that are not given here.", "data": [{"smiles": "COc1ccc(NC(=O)c2ccc(C(=N)N(C)C)cc2)c(C(=O)Nc2ccc(Cl)cn2)c1", "note": "[Compound A, [2-({4-[(dimethylamino)iminomethyl]phenyl}carbonylamino)-5-methoxyphenyl]-N-(5-chloro(2-pyridyl))carboxamide]", "values": [{"measurement": "inhibition at 0.03 µM", "setting": "[1]", "result": -2, "unit": "%"}, {"measurement": "inhibition at 0.1 µM", "setting": "[1]", "result": 4, "unit": "%"}, {"measurement": "inhibition at 0.3 µM", "setting": "[1]", "result": 0.8, "unit": "%"}, {"measurement": "inhibition of cytokine release", "setting": "cytokine release", "result": "did not produce statistically significant inhibition of cytokine release"}, {"measurement": "correlation between Compound A plasma concentration and inhibition of thrombin generation", "setting": "thrombin generation [2]; plasma of healthy volunteers, single and multiple ascending doses (FIG. 1, FIG. 2)", "result": "good correlation"}, {"measurement": "effect on inhibition of thrombin generation", "setting": "thrombin generation [2]; total knee replacement patients, 15 mg or 40 mg oral twice a day", "result": "dose- and concentration-dependent effect"}, {"measurement": "Template Bleed Times", "setting": "Rhesus Monkeys; 4.0 mg/kg, 1 hr, individual animals (Rhesus # 30675, 30973)", "result": "1.50 and 3.75"}, {"measurement": "Template Bleed Times, Mean of animals", "setting": "Rhesus Monkeys; 4.0 mg/kg, 1 hr", "result": 2.63, "unit": "min"}, {"measurement": "Template Bleed Times", "setting": "Rhesus Monkeys; 4.0 mg/kg, 2 hr, individual animals (Rhesus # 30675, 30973)", "result": 1.50}, {"measurement": "Template Bleed Times, Mean of animals", "setting": "Rhesus Monkeys; 4.0 mg/kg, 2 hr", "result": 1.5, "unit": "min"}, {"measurement": "Template Bleed Times", "setting": "Rhesus Monkeys; 4.0 mg/kg, 3 hr, individual animals (Rhesus # 30675, 30973)", "result": 1.50}, {"measurement": "Template Bleed Times, Mean of animals", "setting": "Rhesus Monkeys; 4.0 mg/kg, 3 hr", "result": 1.5, "unit": "min"}, {"measurement": "Template Bleed Times", "setting": "Rhesus Monkeys; 4.0 mg/kg, 8 hr, individual animals (Rhesus # 30675, 30973)", "result": 2.00}, {"measurement": "Template Bleed Times, Mean of animals", "setting": "Rhesus Monkeys; 4.0 mg/kg, 8 hr", "result": 2, "unit": "min"}, {"measurement": "Template Bleed Times", "setting": "Rhesus Monkeys; 4.0 mg/kg, 24 hr, individual animals (Rhesus # 30675, 30973)", "result": 2.50}, {"measurement": "Template Bleed Times, Mean of animals", "setting": "Rhesus Monkeys; 4.0 mg/kg, 24 hr", "result": 2.5, "unit": "min"}, {"measurement": "Template Bleed Times, Mean of all times", "setting": "Rhesus Monkeys; 4.0 mg/kg", "result": "1.98*"}, {"measurement": "Template Bleed Times, Mean per animal", "setting": "Rhesus Monkeys; 4.0 mg/kg, mean over time points of each animal (Rhesus # 30675, 30973)", "result": "1.80 and 2.25"}, {"measurement": "Template Bleed Times, Mean for time points 1-24 hr (post-Compound A dosing)", "setting": "Rhesus Monkeys; 4.0 mg/kg", "result": "2.03**"}, {"measurement": "Template Bleed Times", "setting": "Rhesus Monkeys; 7.5 mg/kg, 1 hr, individual animals (Rhesus # 25285, 27678)", "result": "3.00 and 2.00"}, {"measurement": "Template Bleed Times, Mean of animals", "setting": "Rhesus Monkeys; 7.5 mg/kg, 1 hr", "result": 2.5, "unit": "min"}, {"measurement": "Template Bleed Times", "setting": "Rhesus Monkeys; 7.5 mg/kg, 2 hr, individual animals (Rhesus # 25285, 27678)", "result": "2.50 and 1.75"}, {"measurement": "Template Bleed Times, Mean of animals", "setting": "Rhesus Monkeys; 7.5 mg/kg, 2 hr", "result": 2.13, "unit": "min"}, {"measurement": "Template Bleed Times", "setting": "Rhesus Monkeys; 7.5 mg/kg, 3 hr, individual animals (Rhesus # 25285, 27678)", "result": "2.50 and 2.00"}, {"measurement": "Template Bleed Times, Mean of animals", "setting": "Rhesus Monkeys; 7.5 mg/kg, 3 hr", "result": 2.25, "unit": "min"}, {"measurement": "Template Bleed Times", "setting": "Rhesus Monkeys; 7.5 mg/kg, 8 hr, individual animals (Rhesus # 25285, 27678)", "result": "4.00 and 2.50"}, {"measurement": "Template Bleed Times, Mean of animals", "setting": "Rhesus Monkeys; 7.5 mg/kg, 8 hr", "result": 3.25, "unit": "min"}, {"measurement": "Template Bleed Times", "setting": "Rhesus Monkeys; 7.5 mg/kg, 24 hr, individual animals (Rhesus # 25285, 27678)", "result": 2.50}, {"measurement": "Template Bleed Times, Mean of animals", "setting": "Rhesus Monkeys; 7.5 mg/kg, 24 hr", "result": 2.5, "unit": "min"}, {"measurement": "Template Bleed Times, Mean of all times", "setting": "Rhesus Monkeys; 7.5 mg/kg", "result": "2.50*"}, {"measurement": "Template Bleed Times, Mean per animal", "setting": "Rhesus Monkeys; 7.5 mg/kg, mean over time points of each animal (Rhesus # 25285, 27678)", "result": "2.90 and 2.15"}, {"measurement": "Template Bleed Times, Mean for time points 1-24 hr (post-Compound A dosing)", "setting": "Rhesus Monkeys; 7.5 mg/kg", "result": "2.53**"}, {"measurement": "bleeding times", "setting": "Rhesus Monkeys; supra-therapeutic doses (7 to 35 times greater than the 0.21 mg/kg to 0.57 mg/kg human therapeutic doses)", "result": "did not extend of bleeding times"}, {"measurement": "bleeding time in monkeys", "setting": "Rhesus Monkeys; therapeutic levels, plasma concentrations between 5 to 25 ng/mL", "result": "did not cause extension of bleeding"}, {"measurement": "% Inhibition of thrombin generation", "setting": "thrombin generation [3]; ASA donors, 7.8125 nM Compound A, normalized to Non-ASA at 0 nM", "result": 24.6, "unit": "%"}, {"measurement": "% Inhibition of thrombin generation", "setting": "thrombin generation [3]; ASA donors, 15.625 nM Compound A, normalized to Non-ASA at 0 nM", "result": 26.9, "unit": "%"}, {"measurement": "% Inhibition of thrombin generation", "setting": "thrombin generation [3]; ASA donors, 31.25 nM Compound A, normalized to Non-ASA at 0 nM", "result": 33.4, "unit": "%"}, {"measurement": "% Inhibition of thrombin generation", "setting": "thrombin generation [3]; ASA donors, 62.5 nM Compound A, normalized to Non-ASA at 0 nM", "result": 46.0, "unit": "%"}, {"measurement": "% Inhibition of thrombin generation", "setting": "thrombin generation [3]; ASA donors, 125 nM Compound A, normalized to Non-ASA at 0 nM", "result": 64.7, "unit": "%"}, {"measurement": "% Inhibition of thrombin generation", "setting": "thrombin generation [3]; ASA donors, 250 nM Compound A, normalized to Non-ASA at 0 nM", "result": 82.5, "unit": "%"}, {"measurement": "% Inhibition of thrombin generation", "setting": "thrombin generation [3]; ASA donors, 500 nM Compound A, normalized to Non-ASA at 0 nM", "result": 94.6, "unit": "%"}, {"measurement": "% Inhibition of thrombin generation", "setting": "thrombin generation [3]; Non-ASA donors, 7.8125 nM Compound A", "result": 3.2, "unit": "%"}, {"measurement": "% Inhibition of thrombin generation", "setting": "thrombin generation [3]; Non-ASA donors, 15.625 nM Compound A", "result": 5.1, "unit": "%"}, {"measurement": "% Inhibition of thrombin generation", "setting": "thrombin generation [3]; Non-ASA donors, 31.25 nM Compound A", "result": 12.2, "unit": "%"}, {"measurement": "% Inhibition of thrombin generation", "setting": "thrombin generation [3]; Non-ASA donors, 62.5 nM Compound A", "result": 25.2, "unit": "%"}, {"measurement": "% Inhibition of thrombin generation", "setting": "thrombin generation [3]; Non-ASA donors, 125 nM Compound A", "result": 55.1, "unit": "%"}, {"measurement": "% Inhibition of thrombin generation", "setting": "thrombin generation [3]; Non-ASA donors, 250 nM Compound A", "result": 81.1, "unit": "%"}, {"measurement": "% Inhibition of thrombin generation", "setting": "thrombin generation [3]; Non-ASA donors, 500 nM Compound A", "result": 96.0, "unit": "%"}]}]}
